Laboratory results taken from the NIST ThermoML archive (doi:10.1021/je900596d).
± gives the expanded uncertainty stated by the source.

Details: 343.18 K, Liquid, Vibrating tube method

FC(F)=C(F)C(F)(F)F [hexafluoropropene]
Details	mass density [kg/m3]
2323.3 kPa	1027.29 ± 1.1
2331.8 kPa	1027.71 ± 1.1
2340.3 kPa	1028.3 ± 1.1
2348.6 kPa	1028.71 ± 1.1
2357.9 kPa	1029.39 ± 1.1
2367.9 kPa	1029.94 ± 1.1
2376.2 kPa	1030.38 ± 1.1
2386.7 kPa	1030.85 ± 1.1
2396.9 kPa	1031.35 ± 1.1
2403.7 kPa	1031.5 ± 1.1
2413.7 kPa	1032.28 ± 1.1
2426.4 kPa	1032.67 ± 1.2
2437.3 kPa	1033.33 ± 1.2
2447 kPa	1034.04 ± 1.2
2457.9 kPa	1034.52 ± 1.2
2464 kPa	1034.92 ± 1.2
2470.6 kPa	1035.47 ± 1.2
2480.5 kPa	1035.86 ± 1.2
2486.7 kPa	1036.28 ± 1.1
2497.1 kPa	1037.07 ± 1.1
2503.3 kPa	1037.46 ± 1.1
2522.8 kPa	1038.69 ± 1.1
2540.4 kPa	1039.48 ± 1.1
2556.8 kPa	1040.31 ± 1.1
2578.1 kPa	1041.52 ± 1.1
2596.9 kPa	1042.44 ± 1.1
2616.9 kPa	1043.45 ± 1.1
2632.9 kPa	1044.34 ± 1.1
2650.6 kPa	1045.42 ± 1.1
2671.6 kPa	1046.57 ± 1.1
2693 kPa	1047.89 ± 1.1
2710.6 kPa	1048.77 ± 1.1
2730.2 kPa	1049.48 ± 1.1
2747.6 kPa	1050.19 ± 1.1
2764.4 kPa	1050.73 ± 1.1
2782.1 kPa	1051.54 ± 1.1
2799.6 kPa	1052.3 ± 1.1
2815.7 kPa	1053.03 ± 1.1
2831.9 kPa	1053.99 ± 1.1
2852.2 kPa	1055 ± 1.1
2887.1 kPa	1056.99 ± 1.1
2909.8 kPa	1058.07 ± 1.1
2930.4 kPa	1058.89 ± 1.1
2950.3 kPa	1059.55 ± 1.1
2967.4 kPa	1060.2 ± 1.1
2986 kPa	1061.16 ± 1.1
3013.7 kPa	1062.17 ± 1.1
3046.6 kPa	1063.75 ± 1.1
3078.2 kPa	1064.77 ± 1.1
3103.6 kPa	1065.88 ± 1.1
3134.8 kPa	1067.08 ± 1.1
3168.5 kPa	1068.48 ± 1.1
3201.9 kPa	1069.74 ± 1.1
3235.7 kPa	1071.04 ± 1.1
3266.7 kPa	1072.23 ± 1.1
3300.3 kPa	1073.66 ± 1.1
3332 kPa	1075.03 ± 1.1
3361.4 kPa	1076.36 ± 1.1
3394.9 kPa	1077.6 ± 1.1
3430.3 kPa	1078.63 ± 1.1
3463.3 kPa	1079.82 ± 1.1
3496.3 kPa	1081.01 ± 1.1
3518.3 kPa	1081.82 ± 1.2
3550.7 kPa	1083.01 ± 1.1
3586.6 kPa	1084.11 ± 1.2
3619.2 kPa	1085.32 ± 1.1
3651.4 kPa	1086.39 ± 1.2
3686 kPa	1087.66 ± 1.1
3728.2 kPa	1089.03 ± 1.1
3764.5 kPa	1090.25 ± 1.1
3805.5 kPa	1091.78 ± 1.1
3846.6 kPa	1092.95 ± 1.1
3882.5 kPa	1093.89 ± 1.1
3923.8 kPa	1095.4 ± 1.2
3956.8 kPa	1096.28 ± 1.1
3999.1 kPa	1097.44 ± 1.1
4049.2 kPa	1099.28 ± 1.1
4092.3 kPa	1100.59 ± 1.1
4134.3 kPa	1101.91 ± 1.1
4183.8 kPa	1102.89 ± 1.1
4226.9 kPa	1104.11 ± 1.1
4279.1 kPa	1105.63 ± 1.1
4326.3 kPa	1106.67 ± 1.1
4369.2 kPa	1107.87 ± 1.2
4410.8 kPa	1109.1 ± 1.2
4451.8 kPa	1110.42 ± 1.1
4504 kPa	1111.78 ± 1.1
4556.4 kPa	1112.8 ± 1.2
4599.1 kPa	1114.05 ± 1.2
4697.6 kPa	1116.51 ± 1.1
4742.5 kPa	1117.74 ± 1.2
4786.3 kPa	1118.99 ± 1.2
4833.9 kPa	1120.08 ± 1.1
4887.4 kPa	1121.18 ± 1.1
4933.1 kPa	1122.24 ± 1.1
4985.1 kPa	1123.76 ± 1.2
5029 kPa	1124.72 ± 1.2
5073.9 kPa	1125.85 ± 1.1
5132.4 kPa	1127.18 ± 1.2
5174 kPa	1128.12 ± 1.2
5238.1 kPa	1129.48 ± 1.2
5301.9 kPa	1130.82 ± 1.2
5346.6 kPa	1131.66 ± 1.2
5387.9 kPa	1132.67 ± 1.2
5429.7 kPa	1133.71 ± 1.2
5474 kPa	1134.83 ± 1.2
5517.7 kPa	1135.51 ± 1.2
5596.3 kPa	1137.23 ± 1.2
5658.9 kPa	1138.61 ± 1.2
5702.1 kPa	1139.38 ± 1.2
5743.1 kPa	1140.46 ± 1.2
5803.5 kPa	1141.76 ± 1.2
5846.3 kPa	1142.59 ± 1.2
5891.3 kPa	1143.58 ± 1.2
5933.5 kPa	1144.39 ± 1.2
5995 kPa	1145.68 ± 1.2
6036 kPa	1146.23 ± 1.2
6160 kPa	1148.79 ± 1.2
6218.2 kPa	1149.66 ± 1.2
6324.7 kPa	1151.65 ± 1.2
6365.2 kPa	1152.43 ± 1.2
6407.3 kPa	1153.32 ± 1.2
6470.4 kPa	1154.32 ± 1.2
6550 kPa	1155.81 ± 1.2
6660.8 kPa	1157.92 ± 1.2
6725.9 kPa	1159.01 ± 1.2
6839.7 kPa	1161.35 ± 1.2
6887 kPa	1162.02 ± 1.2
6930.3 kPa	1162.69 ± 1.2
6976.6 kPa	1163.25 ± 1.2
7038.7 kPa	1164.35 ± 1.2
7080.9 kPa	1165.18 ± 1.2
7123.3 kPa	1165.76 ± 1.2
